Assay results reported in PubChem BioAssay AID276 (DTP/NCI, 2004).
“And” between values parts separate entries of the source, which are not always exact repeats. Equal entries are not always repeated. Toxic doses and inconclusive results are not listed. Rule for the calls: active = survival T/C of 150% or more; inactive = T/C below 125% in these data. Residues, ends and D or L forms follow the SMILES beside them. *: point of attachment. Trt = c1ccc(C(c2ccccc2)(c2ccccc2)*)cc1; Cbz = O=C(OCc1ccccc1)*

System: B6C3F1 mice, Lewis lung carcinoma iv, survival T/C
Experiment: NCI In Vivo Anticancer Drug Screen. Data for tumor model Lewis Lung Carcinoma (intravenous) in B6C3F1 mice
Details: endpoint: median survival time, schedule: Q01DX009 (ip), higher = longer survival
Summary of the method: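 Transplantable tumor in mice; compound treated vs vehicle controls; read-out survival; value = treated/control (T/C).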

[1] = dose: 0.5 mg/kg/injection, vehicle: water
[2] = dose: 1.0 mg/kg/injection, vehicle: water
[3] = dose: 2.0 mg/kg/injection, vehicle: water
[4] = dose: 25.0 mg/kg/injection, vehicle: suspension in saline
[5] = dose: 50.0 mg/kg/injection, vehicle: suspension in saline
[6] = dose: 100.0 mg/kg/injection, vehicle: suspension in saline
[7] = dose: 200.0 mg/kg/injection, vehicle: suspension in saline
[8] = dose: 12.5 mg/kg/injection, vehicle: saline
[9] = dose: 50.0 mg/kg/injection, vehicle: saline
[10] = dose: 100.0 mg/kg/injection, vehicle: saline
[11] = dose: 50.0 mg/kg/injection, vehicle: Klucel (hydroxypropylcellulose) (HPC)
[12] = dose: 100.0 mg/kg/injection, vehicle: Klucel (hydroxypropylcellulose) (HPC)
[13] = dose: 200.0 mg/kg/injection, vehicle: Klucel (hydroxypropylcellulose) (HPC)
[14] = dose: 400.0 mg/kg/injection, vehicle: Klucel (hydroxypropylcellulose) (HPC)

Measured: T/C

C[n+]1c(-c2cccc(OCCOCCOc3cccc(-c4c5cc(N)ccc5c5ccc(N)cc5[n+]4C)c3)c2)c2cc(N)ccc2c2ccc(N)cc21
inactive: [1] 105 % of control | dose: 0.75 mg/kg/injection, vehicle: saline with Tween-80 103 % of control | [2] 96 % of control | dose: 1.5 mg/kg/injection, vehicle: saline with Tween-80 102 % of control | [3] 100 % of control | dose: 3.0 mg/kg/injection, vehicle: saline with Tween-80 99 % of control | dose: 4.0 mg/kg/injection, vehicle: water 100 % of control and 105 % of control | dose: 6.0 mg/kg/injection, vehicle: saline with Tween-80 108 % of control | dose: 8.0 mg/kg/injection, vehicle: water 105 % of control and 110 % of control | dose: 16.0 mg/kg/injection, vehicle: water 116 % of control

CO[C@H](/C(C)=C/C=C/C(C)=C/c1coc(C)n1)[C@H](C)[C@H]1C[C@@H](O)[C@@]2(C)O[C@H]2/C=C/[C@@H](C)[C@@H]2C[C@@H](CC(=O)O2)C[C@H]2O[C@@H]2C(=O)O1
inactive: dose: 20.0 micrograms/kg/injection, vehicle: Klucel (hydroxypropylcellulose) (HPC) 96 % of control | dose: 40.0 micrograms/kg/injection, vehicle: Klucel (hydroxypropylcellulose) (HPC) 103 % of control | dose: 80.0 micrograms/kg/injection, vehicle: Klucel (hydroxypropylcellulose) (HPC) 105 % of control

CCOC(=O)C1=C(C#N)C2(CCC(OCc3ccccc3)CC2)C(=O)O1 (stereo not drawn)
inactive: dose: 12.5 mg/kg/injection, vehicle: suspension in saline 94 % of control | [4] 94 % of control | [5] 92 % of control | [6] 95 % of control | [7] 102 % of control

C[C@@](O)(/C=C/[C@H]1CC=CC(=O)O1)[C@@H](C[C@@H](O)\C=C/C=C\C=C\CO)OP(=O)(O)O
inactive: dose: 1.56 mg/kg/injection, vehicle: other 93 % of control | dose: 3.12 mg/kg/injection, vehicle: other 91 % of control and 93 % of control and 100 % of control | dose: 6.25 mg/kg/injection, vehicle: other 92 % of control and 95 % of control and 98 % of control | dose: 12.5 mg/kg/injection, vehicle: other 100 % of control and 103 % of control (2×) | dose: 25.0 mg/kg/injection, vehicle: other 114 % of control

COC(=O)NC1C(C)OC(OC2C/C=C(/C)C3C=CC4C(OC5CC(OC6CCC(OC7CC(O)C(OC8CCC(O)C(C)O8)C(C)O7)C(C)O6)C(OC(C)=O)C(C)O5)C(C)CC(C)C4C3(C)/C(O)=C3/C(=O)OC4(CC(C=O)=CC(O)C4/C=C\2C)C3=O)CC1(C)[N+](=O)[O-] (stereo not drawn)
inactive: dose: 1.25 mg/kg/injection, vehicle: water 108 % of control | dose: 2.5 mg/kg/injection, vehicle: water 97 % of control | dose: 5.0 mg/kg/injection, vehicle: water 98 % of control

CN(C)CCC(=O)C(=Cc1ccc(O)cc1)C(=O)CCN(C)C
inactive: [8] 97 % of control | dose: 25.0 mg/kg/injection, vehicle: saline 101 % of control | [9] 102 % of control | [10] 105 % of control and 106 % of control | dose: 200.0 mg/kg/injection, vehicle: saline 104 % of control and 107 % of control

CC1C=NNC1=O (stereo not drawn)
inactive: [11] 103 % of control | [12] 103 % of control | [13] 113 % of control | [14] 121 % of control | dose: 800.0 mg/kg/injection, vehicle: Klucel (hydroxypropylcellulose) (HPC) 118 % of control

CS(=O)(=O)Nc1ccc(C(=O)CCN2CCCCCC2)cc1
inactive: [4] 95 % of control | [5] 100 % of control | [6] 105 % of control | [7] 100 % of control | dose: 400.0 mg/kg/injection, vehicle: suspension in saline 102 % of control

[N-]=[N+]=CC(=O)CCC(=O)C=[N+]=[N-]
inactive: dose: 0.39 mg/kg/injection, vehicle: DMSO 92 % of control | dose: 0.78 mg/kg/injection, vehicle: DMSO 95 % of control | dose: 1.5 mg/kg/injection, vehicle: DMSO 121 % of control | dose: 3.0 mg/kg/injection, vehicle: DMSO 112 % of control | dose: 6.0 mg/kg/injection, vehicle: DMSO 115 % of control | dose: 25.0 mg/kg/injection, vehicle: DMSO 108 % of control

CCOC(OCC)C(=O)OCC(=O)[C@]1(O)Cc2c(O)c3c(c(O)c2[C@@H](OC2CC(N)C(O)C(C)O2)C1)C(=O)c1c(OC)cccc1C3=O (stereo partly drawn)
inactive: dose: 0.13 mg/kg/injection, vehicle: water 113 % of control | [1] 116 % of control | [2] 112 % of control | [3] 120 % of control

COC(=O)C(CSC(c1ccccc1)(c1ccccc1)c1ccccc1)NC(=O)C(CC(N)=O)NC(=O)OCc1ccccc1 (stereo not drawn) (Cbz-Asn-Cys(Trt)-OMe; configuration not given here)
inactive: dose: 12.5 mg/kg/injection, vehicle: distilled water + Tween-80 97 % of control | dose: 25.0 mg/kg/injection, vehicle: distilled water + Tween-80 103 % of control | dose: 50.0 mg/kg/injection, vehicle: distilled water + Tween-80 103 % of control | dose: 100.0 mg/kg/injection, vehicle: distilled water + Tween-80 98 % of control | dose: 200.0 mg/kg/injection, vehicle: distilled water + Tween-80 97 % of control | dose: 400.0 mg/kg/injection, vehicle: distilled water + Tween-80 98 % of control

COc1c(C=O)c2c(c(OC)c1OC)-c1ccc(OC)c(=O)cc1[C@@H](NC(C)=O)CC2
inactive: dose: 1.56 mg/kg/injection, vehicle: Klucel (hydroxypropylcellulose) (HPC) 95 % of control | dose: 3.12 mg/kg/injection, vehicle: Klucel (hydroxypropylcellulose) (HPC) 98 % of control | dose: 6.25 mg/kg/injection, vehicle: Klucel (hydroxypropylcellulose) (HPC) 95 % of control

O=c1n[n+]([O-])ccn1C1OC(CO)C(O)C1O (stereo not drawn)
inactive: [9] 117 % of control | [10] 107 % of control | dose: 400.0 mg/kg/injection, vehicle: saline 89 % of control

[Cl][Pt][Cl].[NH-]C(CO)C(=O)O (stereo not drawn)
inactive: dose: 6.25 mg/kg/injection, vehicle: water 101 % of control | dose: 12.5 mg/kg/injection, vehicle: water 111 % of control | dose: 25.0 mg/kg/injection, vehicle: water 105 % of control | dose: 50.0 mg/kg/injection, vehicle: water 110 % of control

CCN(CC)CC[n+]1ccc2c(C)c3[nH]c4ccc(O)cc4c3c(C)c2c1
inactive: dose: 1.56 mg/kg/injection, vehicle: saline 95 % of control | dose: 1.56 mg/kg/injection, vehicle: suspension in saline 106 % of control | dose: 3.12 mg/kg/injection, vehicle: saline 100 % of control | dose: 3.12 mg/kg/injection, vehicle: suspension in saline 100 % of control | dose: 6.25 mg/kg/injection, vehicle: saline 106 % of control | dose: 6.25 mg/kg/injection, vehicle: suspension in saline 116 % of control | [8] 98 % of control

Cc1ccc(S(=O)(=O)OCOS(=O)(=O)c2ccc(C)cc2)cc1
inactive: [11] 107 % of control | [12] 103 % of control | [13] 108 % of control | [14] 117 % of control
